Data from paper PMC8373216, “Development and Preclinical Evaluation of New Inhaled Lipoglycopeptides for the Treatment of Persistent Pulmonary Methicillin-Resistant Staphylococcus aureus Infections” (Antimicrobial Agents and Chemotherapy, 2021).
≈ marks a conversion by molar mass, not a printed value. Read-outs that look alike come from different tables or passages of the source.

Key:
[1] = system: Peptostreptococcus anaerobius; assay: Expanded panel broth microdilution MIC; format: cell-based
[2] = Single-dose nebulized nose-only inhalation PK in healthy rats; format: in vivo, rat
Procedure: Rats were acclimated in the study facility for approximately 1 week prior to study start. Ten or eleven rats per cohort were loaded into the chamber at the time of dosing. […] An additional airflow set to 6 liters/min was admixed with the nebulizer output to further direct the test articles to the animals. […] The remaining port on the chamber was fit with an aerosol sampling filter for dose determination over a 5 min sampling period. The average dose delivered to the nose of each animal was calculated using an algorithm that was previously described ([49]). […] Animals were euthanized for collection of whole lungs and plasma at time points ranging from immediate postdose (IPD; approximately 30 min after dosing for nebulization) to 168 h postdose (7 days). Drugs were extracted from tissues using customized protein precipitation methods with an appropriate internal standard for each compound and transferred for analysis by LC-MS/MS (Sciex API4500 or API6500+ mass spectrometer [Sciex, Framingham, MA]). GraphPad Prism (La Jolla, CA) was used for statistical analyses and data plotting. […] The data were applied to a noncompartmental analysis after extravascular dosing input and fit to a linear up/log down model. Statistical analysis of in vitro intracellular and biofilm activity was based on a two-way ANOVA with a Bonferroni post test. In vivo statistical analysis was based on the Kolmogorov-Smirnov test.

[3] = system: Streptococcus constellatus; assay: Expanded panel broth microdilution MIC; format: cell-based
[4] = system: MRSA ATCC BAA 1556 (USA300) biofilm; assay: Static MRSA biofilm killing, plastic microtiter plate, MEM
Clostridioides difficile = assay: Expanded panel broth microdilution MIC; format: cell-based
[5] = system: Streptococcus dysgalactiae; assay: Expanded panel broth microdilution MIC/MBC; format: cell-based; settings: for MIC: Streptococcus dysgalactiae
[6] = system: Staphylococcus haemolyticus; assay: Expanded panel broth microdilution MIC; format: cell-based
Enterococcus faecium = assay: Expanded panel broth microdilution MIC/MBC; format: cell-based; settings: for MIC: Enterococcus faecium
Enterococcus faecalis = assay: Expanded panel broth microdilution MIC/MBC; format: cell-based
Streptococcus pneumoniae = assay: Expanded panel broth microdilution MIC/MBC; format: cell-based
[7] = single nebulized nose-only inhaled dose, healthy rats

CCCCCCCCCCNCCN[C@@]1(C)C[C@H](O[C@H]2[C@H](Oc3c4cc5cc3Oc3ccc(cc3Cl)[C@@H](O)[C@@H](NC(=O)[C@@H](CC(C)C)NC)C(=O)N[C@@H](CC(N)=O)C(=O)N[C@H]5C(=O)N[C@H]3C(=O)N[C@H](C(=O)N[C@H](C(=O)O)c5cc(O)c(CNCP(=O)(O)O)c(O)c5-c5cc3ccc5O)[C@H](O)c3ccc(c(Cl)c3)O4)O[C@H](CO)[C@@H](O)[C@@H]2O)O[C@@H](C)[C@H]1O [Telavancin, telavancin]
MIC [1]: 0.03 µg/mL (≈ 0.0171 µM) | MIC ([1]; ATCC27337): 0.03 µg/mL (≈ 0.0171 µM) | half-life ([2]; male, Sprague Dawley, rat, in vivo, inhaled or intranasal, single nebulized nose-only inhaled dose, healthy rats, noncompartmental analysis, read-out: Lung t1/2 (converted)): 21.1 days | Drug lung level at 120 h ([2]; relative to IPD level, rat lung): 81% | Lung AUC0-∞ [2, 7]: 3877 µg·h/g | Lung Cmax [2, 7]: 12 µg/g | Plasma Cmax [2, 7]: BLQ | MIC ([3]; S. constellatus AGS, 1 isolate): 0.03 µg/mL (≈ 0.0171 µM) | MIC ([3]; Streptococcus constellatus): 0.03 µg/mL (≈ 0.0171 µM) | Reduction in MRSA biofilm titer versus control ([4]; doses 1 to 10 μg/ml): approximately 2 log10 CFU/ml | Concentrations with statistically significant reduction versus control biofilm ([4]; two-way ANOVA, Bonferroni): ≥ 10 µg/mL | MIC (Clostridioides difficile; ATCCBAA1805, C. difficile ATCC BAA-1805, ribo 027): 0.12 µg/mL (≈ 0.0684 µM) | MIC (Clostridioides difficile; ATCCBAA1870, C. difficile ATCC BAA-1870, NAP1;ribo 027): 0.12 µg/mL (≈ 0.0684 µM) | MIC (Clostridioides difficile; C. difficile ATTC 700057, toxAB-): 0.12 µg/mL (≈ 0.0684 µM) | MIC (Clostridioides difficile; C. difficile NAP1;ribo 027, 1 isolate): 0.12 µg/mL (≈ 0.0684 µM) | MIC (Clostridioides difficile; C. difficile ribo 027, 1 isolate): 0.12 µg/mL (≈ 0.0684 µM) | MIC (Clostridioides difficile; C. difficile toxAB-, 1 isolate): 0.12 µg/mL (≈ 0.0684 µM) | MIC:MBC ([5]; S. dysgalactiae, MBC on one organism): 4 | MIC ([5]; S. dysgalactiae MMX 5121): 0.12 µg/mL (≈ 0.0684 µM) | MIC ([5]; S. dysgalactiae MMX 5123): 0.25 µg/mL (≈ 0.142 µM) | MIC ([5]; S. dysgalactiae MMX 5124): 0.03 µg/mL (≈ 0.0171 µM) | MIC ([5]; read-out: MIC (median), S. dysgalactiae, 3 isolates): 0.12 µg/mL (≈ 0.0684 µM) | MIC [6]: 0.06 µg/mL (≈ 0.0342 µM) | MIC ([6]; ATCC29970): 0.06 µg/mL (≈ 0.0342 µM) | MIC:MBC (Enterococcus faecium; E. faecium VanA VRE): >4 | MIC:MBC (Enterococcus faecium; E. faecium VanB VRE): >8 | MIC (Enterococcus faecium; E. faecium MMX 4204, VSE): 0.06 µg/mL (≈ 0.0342 µM) | MIC (Enterococcus faecium; E. faecium VSE, 1 isolate): 0.06 µg/mL (≈ 0.0342 µM) | MIC (Enterococcus faecium; VRE, E. faecium MMX 173, VanB VRE): 0.06 µg/mL (≈ 0.0342 µM) | MIC (Enterococcus faecium; VRE, E. faecium MMX 851, VanA VRE): 2 µg/mL (≈ 1.14 µM) | MIC (Enterococcus faecium; VRE, E. faecium VanA VRE, 1 isolate): 2 µg/mL (≈ 1.14 µM) | MIC (Enterococcus faecium; VRE, E. faecium VanB VRE, 1 isolate): 0.06 µg/mL (≈ 0.0342 µM) | MIC:MBC (Enterococcus faecalis; E. faecalis VSE, MBC on one organism): >8 | MIC:MBC (Enterococcus faecalis; E. faecalis VanA VRE): 8 | MIC (Enterococcus faecalis; E. faecalis VanA VRE, 1 isolate): 1 µg/mL (≈ 0.57 µM) | MIC (Enterococcus faecalis; Enterococcus faecalis): 0.25 µg/mL (≈ 0.142 µM) | MIC (Enterococcus faecalis; Enterococcus faecalis, ATCC29212): 0.12 µg/mL (≈ 0.0684 µM) | MIC (Enterococcus faecalis; Enterococcus faecalis, VRE): 1 µg/mL (≈ 0.57 µM) | MIC (Enterococcus faecalis; Enterococcus faecalis, read-out: MIC (median)): 0.19 µg/mL (≈ 0.108 µM) | MIC:MBC (Streptococcus pneumoniae; S. pneumoniae PISP, MBC on one organism): 1 | MIC (Streptococcus pneumoniae; S. pneumoniae PRSP, 1 isolate): 0.03 µg/mL (≈ 0.0171 µM) | MIC (Streptococcus pneumoniae; Streptococcus pneumoniae): 0.015 µg/mL (≈ 0.00854 µM) | MIC (Streptococcus pneumoniae; Streptococcus pneumoniae, ATCC49619): 0.03 µg/mL (≈ 0.0171 µM) | MIC (Streptococcus pneumoniae; Streptococcus pneumoniae, PRSP): 0.03 µg/mL (≈ 0.0171 µM) | MIC (Streptococcus pneumoniae; Streptococcus pneumoniae, read-out: MIC (median)): 0.02 µg/mL (≈ 0.0114 µM)
